Laboratory results: the NIST ThermoML archive (doi:10.1016/j.fluid.2016.02.031)
± gives the expanded uncertainty stated by the source.

Experiment: refractive index (Na D-line) (dimensionless); xn = mol fraction of the nth substance listed
Settings: 100 kPa, Liquid, Standard Abbe refractometry

OCCCO [propan-1,3-diol] + CCC(C)=O
refractive index
Settings | 288.15 K | 293.15 K | 298.15 K | 303.15 K | 308.15 K | 313.15 K | 318.15 K | 323.15 K | 328.15 K | 333.15 K
x1 = 0.1052 | 1.38816 ± 0.00035 | 1.3857 ± 0.00035 | 1.38318 ± 0.00035 | 1.38072 ± 0.00035 | 1.3783 ± 0.00035 | 1.37575 ± 0.00035 | 1.37324 ± 0.00035 | 1.3706 ± 0.00035 | 1.36798 ± 0.00035 | 1.36512 ± 0.00035
x1 = 0.2004 | 1.39411 ± 0.00035 | 1.39177 ± 0.00035 | 1.38937 ± 0.00035 | 1.38701 ± 0.00035 | 1.38469 ± 0.00035 | 1.38226 ± 0.00035 | 1.37988 ± 0.00035 | 1.37728 ± 0.00035 | 1.37479 ± 0.00035 | 1.37205 ± 0.00035
x1 = 0.3002 | 1.40019 ± 0.00035 | 1.39791 ± 0.00035 | 1.39561 ± 0.00035 | 1.39336 ± 0.00035 | 1.39119 ± 0.00035 | 1.38891 ± 0.00035 | 1.38656 ± 0.00035 | 1.38422 ± 0.00035 | 1.38186 ± 0.00035 | 1.3793 ± 0.00035
x1 = 0.4003 | 1.40646 ± 0.00035 | 1.4043 ± 0.00035 | 1.40216 ± 0.00035 | 1.40002 ± 0.00035 | 1.39791 ± 0.00035 | 1.39575 ± 0.00035 | 1.39357 ± 0.00035 | 1.39132 ± 0.00035 | 1.38903 ± 0.00035 | 1.38657 ± 0.00035
x1 = 0.4999 | 1.41261 ± 0.00035 | 1.41059 ± 0.00035 | 1.40857 ± 0.00035 | 1.40654 ± 0.00035 | 1.40452 ± 0.00035 | 1.40246 ± 0.00035 | 1.40036 ± 0.00035 | 1.39822 ± 0.00035 | 1.39608 ± 0.00035 | 1.3938 ± 0.00035
x1 = 0.5992 | 1.41868 ± 0.00035 | 1.4168 ± 0.00035 | 1.4149 ± 0.00035 | 1.41298 ± 0.00035 | 1.41104 ± 0.00035 | 1.4091 ± 0.00035 | 1.40712 ± 0.00035 | 1.40508 ± 0.00035 | 1.40306 ± 0.00035 | 1.40096 ± 0.00035
x1 = 0.6992 | 1.42474 ± 0.00035 | 1.42295 ± 0.00035 | 1.42116 ± 0.00035 | 1.41936 ± 0.00035 | 1.41754 ± 0.00035 | 1.41566 ± 0.00035 | 1.41382 ± 0.00035 | 1.41196 ± 0.00035 | 1.41006 ± 0.00035 | 1.4081 ± 0.00035
x1 = 0.7989 | 1.43046 ± 0.00035 | 1.42881 ± 0.00035 | 1.42712 ± 0.00035 | 1.42544 ± 0.00035 | 1.42374 ± 0.00035 | 1.42201 ± 0.00035 | 1.4203 ± 0.00035 | 1.41857 ± 0.00035 | 1.4168 ± 0.00035 | 1.41497 ± 0.00035
x1 = 0.8998 | 1.43588 ± 0.00035 | 1.43434 ± 0.00035 | 1.43277 ± 0.00035 | 1.43123 ± 0.00035 | 1.42967 ± 0.00035 | 1.42812 ± 0.00035 | 1.42654 ± 0.00035 | 1.42496 ± 0.00035 | 1.42335 ± 0.00035 | 1.42166 ± 0.00035
x1 = 1 | 1.44073 ± 0.00035 | 1.43932 ± 0.00035 | 1.43792 ± 0.00035 | 1.43654 ± 0.00035 | 1.43513 ± 0.00035 | 1.43375 ± 0.00035 | 1.43232 ± 0.00035 | 1.43087 ± 0.00035 | 1.42945 ± 0.00035 | 1.42803 ± 0.00035
